Test results taken from ChEMBL document CHEMBL1201862, “PubChem BioAssay data set” (2004).
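Dose response: 5 concentrations. Exposure: 48 h. Format: 96-well plates. Endpoint: linear interpolation; highest concentration if not reached. GI50 is the concentration that inhibits growth by half.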 The source made the active and inactive calls. Cut-off read from the data, not from the text of the source: active = GI50 up to about 1.1 µM and inactive = higher.

Tests used:
Experiment in all cases: NCI-60 cell line screen, 48 h
[1] = system: A498
[2] = system: COLO 205
[3] = system: EKVX
[4] = system: HCC 2998
[5] = system: NCI-H226
[6] = system: OVCAR-3
[7] = system: OVCAR-4
[8] = system: OVCAR-5
[9] = system: OVCAR-8
[10] = system: RPMI-8226
[11] = system: SK-MEL-28
[12] = system: SK-MEL-5
[13] = system: SNB-19
[14] = system: SW-620
[15] = system: U-251
[16] = system: UACC-257

Measured: GI50

O=NN(CCCl)C(=O)N[C@H]1CC[C@@H](C(=O)O)CC1
inactive: [1] > 100 µM | [2] > 100 µM | [3] > 100 µM | [4] > 100 µM | [5] > 100 µM | [6] > 100 µM | [7] > 100 µM | [8] > 100 µM | [9] > 100 µM | [10] 46.3 µM | [11] > 100 µM | [12] > 100 µM | [13] 70 µM | [14] > 76.6 µM | [15] 40.9 µM | [16] > 100 µM

CC1CCC(O)C(C(O)CC2CC(=O)N(C)C(=O)C2)C1 (configuration not stated)
inactive: [1] > 100 µM | [2] > 100 µM | [3] > 100 µM | [4] > 100 µM | [5] > 100 µM | [6] > 100 µM | [7] > 100 µM | [8] > 100 µM | [9] > 100 µM | [10] > 100 µM | [11] > 100 µM | [13] > 100 µM | [14] > 100 µM | [15] > 100 µM | [16] > 100 µM

C[N+](C)=c1nc(N2CCc3ccccc3C2)ss1.[O-][Cl+3]([O-])([O-])[O-]
inactive: [1] > 100 µM | [2] 42.8 µM | [4] > 100 µM | [5] > 100 µM | [6] 82 µM | [7] > 100 µM | [9] > 100 µM | [10] 69.8 µM | [11] > 100 µM | [12] > 100 µM | [13] > 100 µM | [14] > 100 µM | [15] > 100 µM | [16] > 100 µM

CC1=C(C#N)C(N)=C2C(C)=C(C#N)C(N)=C12
inactive: [1] > 100 µM | [2] > 100 µM | [3] > 100 µM | [4] > 100 µM | [5] > 100 µM | [6] > 100 µM | [7] > 100 µM | [8] > 100 µM | [9] > 100 µM | [10] > 100 µM | [12] > 100 µM | [13] > 100 µM | [14] > 100 µM | [15] > 100 µM | [16] > 100 µM

CCCCCCCCCC(=O)Oc1cccc2onc(C)c12
inactive: [2] > 100 µM | [3] > 100 µM | [4] 79.1 µM | [5] 88.9 µM | [6] > 100 µM | [7] > 100 µM | [8] > 100 µM | [9] > 100 µM | [10] > 100 µM | [11] > 100 µM | [12] > 100 µM | [13] > 100 µM | [14] > 100 µM | [15] > 100 µM | [16] > 100 µM

COc1ccc([C@H]2CC(=O)N3CCCC3N2)cc1 (some centres not stated)
inactive: [1] > 100 µM | [2] > 100 µM | [3] > 100 µM | [4] > 100 µM | [5] > 100 µM | [7] > 100 µM | [8] > 100 µM | [9] > 100 µM | [10] > 100 µM | [11] > 100 µM | [12] > 100 µM | [13] > 100 µM | [14] > 100 µM | [15] > 100 µM | [16] > 100 µM

Cc1nn2c(=O)n(-c3cccc(-n4nnc5c(-c6ccccc6)c(C)nn5c4=O)c3C)nnc2c1-c1ccccc1
inactive: [1] 83.6 µM | [2] 17.5 µM | [3] 38.9 µM | [4] 20.5 µM | [5] 45.3 µM | [6] 6.95 µM | [7] 15.6 µM | [8] > 100 µM | [9] 24.7 µM | [10] 17.6 µM | [12] 16.6 µM | [13] > 100 µM | [14] 20.6 µM | [15] 25.2 µM | [16] 22.4 µM

C=C(C)C1CCC2(C)CC1c1c(c(C)cc3c1[nH]c1ccccc13)O2 (configuration not stated)
inactive: [2] > 25 µM | [4] > 25 µM | [5] 16.7 µM | [6] > 25 µM | [7] 11.7 µM | [8] > 25 µM | [9] > 25 µM | [10] > 25 µM | [11] > 25 µM | [12] > 25 µM | [13] > 25 µM | [14] > 25 µM | [15] > 25 µM

Brc1ccc2c(c1)C1(c3cc(Br)ccc3-2)c2cc(Br)ccc2-c2ccc(Br)cc21
inactive: [2] > 100 µM | [3] > 100 µM | [4] > 100 µM | [5] > 100 µM | [6] > 100 µM | [7] > 100 µM | [8] > 100 µM | [9] > 100 µM | [10] > 100 µM | [11] > 100 µM | [13] > 100 µM | [14] > 100 µM | [15] > 100 µM | [16] > 100 µM
